One data set relates to MDA-MB231 cells. Kind of data set: Cell viability in triple negative breast cancer cell line MDA-MB231. Format: cell-based. The note with it: MDA-MB231, 400 cells per well; FIG. 13(a). The procedure:
(§1) MIA PaCa-2, […], LS180, HT1376, HT29, H358, H1299, OVCAR-3, HTB-9 and Panc 10.05 cells were obtained from ATCC (Rockville, MD). MiaPaCa cells were cultured in DMEM medium supplemented with 10% FBS. H358, H1299, HTB-9, N87 and Panc 10.05 cells were cultured in DMEM/10% FBS; LS180 and HT1376 in EMEM/10% FBS; HT29 cells in McCoy5A/10% FBS; OVCAR-3 cells were incubated in RPMI/20% FBS. All cells were maintained at 37 degrees C. in an atmosphere containing 5% CO^2.
(§2) The day before transfection, cells were seeded in a 384-well plate at an optimal density of between 300 and 800 cells/well. […]
(§3) Ninety-six hours following the addition of GEM or transfection mixtures, the number of viable cells was determined with CellTiter-Glo®-2.0 reagent (Promega, Madison, WI) by measuring luminescent signal using a Cytation 5 plate reader (BioTek Inc, Winooski, VT). […]
(§4) Using the same or similar experimental condition as are described above in Example 1, the effects of (i) PGN7 (SEQ. ID No. 9-10) plus a non-signaling oligonucleotide (“NS”), (ii) BCLxL #5 (SEQ. ID No. 14)+NS, and (iii) PGN7 and BCLxL #5 in combination were evaluated and are shown in triple negative breast cancer (MDA-MB231) and ovarian cancer (OVCAR3) cell lines in FIGS. 13 (a)-(b). […]

The test system of a further data set is OVCAR3 cells. The data set is described as follows: Cell viability in ovarian cancer cell line OVCAR3. Format: cell-based. As to conditions: OVCAR3, 800 cells per well; FIG. 13(b). How it is done:
as §1, §2, §3, §4

Data set [1] relates to MIA PaCa-2 human pancreatic cancer xenograft. Kind of data set: PGN6 efficacy on pancreatic tumor growth in NOD/SCID mice inoculated with MIA PaCa-2. Format: in vivo, mouse. From the text: Twenty, 6- to 9-week old NOD/SCID female mice were purchased from the Jackson Laboratory. Each mouse was tagged for identification at the beginning of the study. Up to 5 mice were housed in a single cage with standard corn cob bedding for a minimum of three days for stabilization; bedding was changed every two weeks. Fluorescent lighting was provided on a 12-hour cycle; temperature was maintained between 68-79 degrees F. at 30-70 percent humidity. Mice were fed an 18 percent soy irradiated rodent feed (Envigo) and autoclaved acidified water (pH 2.5-3) were available to all animals ad libitum. The mice were observed daily for clinical signs of disease.
Tumor cell preparation: Cryogenic vials containing tumor cells were thawed and cultured according to the manufacturer's protocol. On the day of inoculation, cells were washed in a serum-free media, counted, and resuspended in cold serum-free media at a concentration of 3 million cells per 100 microliters. […]
Tumor measurement: Mice were monitored weekly for palpable tumors or changes in appearance or behavior. Once tumors were palpable they were measured weekly using calipers. Tumor volume was calculated using the equation: […]
Once tumors were on average between 150-250 mm^3 in volume, tumors and body weights were measured at least twice weekly for the duration of the study. […]

The test system of data set [2] is pancreatic, lung and colon cancer cell lines. The data set is described as follows: Cell viability in pancreatic, lung and colon cancer cell lines. Type of data set: cell-based. The procedure:
as §1
(§5) The day before transfection, cells were seeded in a 384-well plate at an optimal density of between 300 and 800 cells/well. The next day, ten 3-fold serial dilutions of single, modified-backbone siRNAs or PGN6/PGN7 siRNA and Gemcitabine (GEM) mixed with siRNAs: Wee1 #7, KRAS #1, MCL1 #3 or DM2-P47 siRNAs at 1:1 ratio were prepared and combined with diluted Lipofectamine RNAiMAX (Life Technologies, Carlsbad, CA). Within 20 minutes, 10 μl of the transfection mixtures were added to the cells in a 40 μL medium. The final concentrations of siRNAs or Gemcitabine in the wells ranged from 100 nM to 0.002 nM.
(§6) Ninety-six hours following the addition of GEM or transfection mixtures, the number of viable cells was determined with CellTiter-Glo®-2.0 reagent (Promega, Madison, WI) by measuring luminescent signal using a Cytation 5 plate reader (BioTek Inc, Winooski, VT). The treatment group (n=4) mean (±SD) was compared to those of non-treated controls and were reported as relative cell viability.
Using the same experimental conditions as are described above in Example 1, the efficacy on cell viability was evaluated for PGN6 (SEQ. ID Nos. 7-8), with and without lipofentamine (“lipo”) in three types of cancer cell lines. FIG. 3 (a)-(c) show the effects of PGN6, with and without lipo on cell viability at increasing siRNA levels in pancreatic cancer cell lines. FIG. 4 (a)-(b) similarly show the effects of these variants on cell viability in lung cancer cell lines; FIG. 5 (a)-(b) show the effects of these variants on cell viability in colon cancer cell lines. All data are shown as mean±SD. […]
Using the same experimental conditions as are described above in Example 1, the efficacy of STD1 (SEQ. ID Nos. 1-2), PGN6 (SEQ. ID Nos. 7-8) and PGN7 (SEQ. ID Nos. 9-10) were evaluated in three types of cancer cell lines. […]
Using the same experimental conditions as are described above in Example 1, the efficacy of PGN7 (SEQ. ID No. 9-10) alone and its combination with WEE1 #7 (SEQ. ID No. 13) was evaluated in three types of cancer cell lines. […]
Using the same experimental conditions as are described above in Example 1, the efficacy of PGN7 (SEQ. ID No. 9-10) and the combination of BCLxL #5 (SEQ. ID No. 14) and PGN7 was evaluated in three types of cancer cell lines. […]

The subject of another data set is MiaPaCa-2 cells. The data set is described as follows: Cell viability (CellTiter-Glo) in MiaPaCa-2 pancreatic cancer cells after transfection. As to conditions: Homo sapiens, MIA PaCa-2. Format: cell-based, human. The procedure: as §1, §5, §6
For data set [3], the system named is HT1376, HTB-9, N87 and OVCAR-3 cell lines. The data set is described as follows: Cell viability in urinary bladder, gastric and ovarian cancer cell lines. Format: cell-based. The note with it: HT1376, HTB-9, N87, OVCAR-3; FIGS. 9-10. The procedure: as §1, §2, §3
Using the same or similar experimental condition as are described above in Example 1, the effects of PGN7 (SEQ. ID No. 9-10), Wee1 (SEQ. ID No. 13), BCLxL #5 (SEQ. ID No. 14) or the PGN7+Wee1, or PGN+BCLxL combinations were evaluated and are shown in HT1376 (400 cells/well) and HTB-9 (800 cells/well) urinary bladder cancer cell lines, N87 (600 cells/well) gastric cancer cell line, and OVCAR-3 (800 cells/well) ovarian cancer line in FIGS. 11 (a)-(d). […]

pIC50: −log10 of the molar value. Entries after “also recorded” stand apart in the source; their conditions may differ. Like-named read-outs stand apart in the source and are kept apart here.

For “BCLxL #5: siRNA sequence used to target BCLxL, SEQ. ID No. 14 (no GEM) (GCGTGGAAAGCGTAGACAAGGAGAT; listed as DNA, chemistry not given here)”, the pIC50 in the data set with MDA-MB231 cells is 9.30; in the data set on OVCAR3 cells, 8.57.
In the case of “PGN6: modified siRNA-GEM molecule (SEQ. ID No. 7-8): sense 5′-AAGAAAgAgau [GEM]UGUAU[GEM]AAU-3′; antisense 5′-AuUGAuACAGAUCuCuuucuu[GEM][GEM]dTdT-3′ (sense AAGAAAGAGATCTGTATCAAT; antisense ATTGATACAGATCTCTTTCTTCCTT; GEM modifications; dTdT overhang; modified_base 1 OTHER; 2'-O-methyl modified nucleotide; modified_base 2 OTHER; modified_base 3 OTHER; modified_base 4 OTHER; modified_base 5 OTHER; modified_base 6 OTHER; modified_base 7 OTHER; 2'-fluoro modified nucleotide; modified_b; 2'-O-me)”, the “pancreatic tumor volume / tumor growth” value in data set [1] (2 mg/kg IV twice weekly for three weeks, with DODAB siRNA in HKP(+H), vs control, n=10, FIG. 12(a)) was “attenuate or prevent tumor growth; also recorded: tumors did not grow; also recorded: attenuating the growth of pancreatic tumors”. Further, the body weight entry in data set [1] (2 mg/kg twice weekly, 20 days treatment period, FIG. 12(b)) is on record as “body weight remained constant”. Also, the “effectiveness with lipofectamine versus without lipofectamine” value is reported as “apparently more effective” in data set [2] (lung (FIG. 4) and colon (FIG. 5) cancer cell lines); “more effective” in data set [2] (pancreatic lines MiaPaCa (G12C), BXPC3 (WT), Panc10.05, FIG. 3). The “reduction of cell viability” value in data set [2] (single siRNA against non-silencing control, pancreatic, lung, colon, FIG. 6) was “effective in reducing cell viability”.
Take `Nc1ccn([C@@H]2O[C@H](CO)[C@@H](O)C2(F)F)c(=O)n1` [Gemcitabine, 2′, 2′-difluoro 2′-deoxycytidine]: the pIC50 in the data set on MiaPaCa-2 cells (in combination with lipofectamine, 96 h, n=4 (FIG. 2), read-out: IC50, MiaPaCa-2 cell viability) was 8.10; in the data set with MiaPaCa-2 cells (with lipofectamine (GEM alone for gemcitabine), FIG. 2, read-out: ID50, MiaPaCa cells), 8.10.
For the compound “WEE1 #7: siRNA sequence used to target WEE1, SEQ. ID No. 13 (no GEM) (CGCTCTGTCAGCCTTACTA; listed as DNA, chemistry not given here)”, the “efficacy on cell viability” value in data set [3] was “significant efficacy”.

(Values after US20250027086A1, “COMPOSITIONS AND METHODS FOR TREATMENT OF CANCERS USING MODIFIED siRNA-GEM AGENTS” (Sirnaomics, Inc., priority 2022, published 2025).)
